The values below come from patent US12144864B2, “Tubulysins and protein-tubulysin conjugates” (Regeneron Pharmaceuticals, Inc., priority 2018, dated 2024).

The structures appear in SMILES notation. Read-outs that look alike come from different tables or passages of the source.

The subject of one assay is C4-2 cells. In words: Cell-based killing assay of payloads (CellTiter-Glo), C4-2 cells. Conditions: 5-day incubation; for IC50: Homo sapiens, C4-2, 120 h, average ± SD where replicates; for C4-2 % Kill: at maximum concentration tested (100 − % viable cells). On the set-up: species or system human. Here is the method: (§1) To test the ability of the disclosed tubulysin payloads to kill human cell lines, an in vitro cytotoxicity assay was performed. In vitro cytotoxicity of the disclosed payloads, as well as reference compounds, were evaluated using the CellTiter-Glo Assay Kit (Promega, Cat #G7573), in which the quantity of ATP present is used to determine the number of viable cells in culture. For the assay, C4-2, HEK293, or T47D cells were seeded at 4000 cells/well on Nunclon white 96-well plates in complete growth medium (DME high glucose:Ham's F12 at 4:1, 10% FBS, 100 units/ml Penicillin, 100 ug/ml streptomycin, 53 ug/ml glutatmine, 10 ug/ml insulin, 220 ng/ml biotin, 12.5 pg/ml T3, 12.5 ug/ml Adenine, 4 ug/ml transferrin for C42 cells; DME high glucose, 10% FBS, 100 units/ml Penicillin, 100 ug/ml streptomycin, 53 ug/ml glutatmine for HEK293; RPMI, 10% FBS, 100 units/ml Penicillin, 100 ug/ml streptomycin, 53 ug/ml glutatmine, 10 ug/ml insulin, 10 mM HEPEs, 200 nM Sodium Pyruvate for T47D cells) and grown overnight at 37° C. in 5% CO2. For cell viability curves, 1:3 serially diluted payloads were added to the cells at final concentrations ranging from 100 nM to […], including a no treatment control group, and were then incubated for 5 days. After the 5-day incubation, cells were incubated at room temperature with 100 μL of CellTiter-Glo reagents for 10 minutes. Relative luminescence units (RLU) were determined on a Victor plate reader (PerkinElmer). The IC50 values were determined from a four-parameter logistic equation over a 10-point response curve (GraphPad Prism). All IC50 values are expressed in molar (M) concentration. The percent cell killing (% kill) at the maximum concentration tested was estimated from the following formula (100−% viable cells). Averages±standard deviation (SD) are included where replicate experiments were performed.

The next assay relates to HCT-15 cells. In words: Cytotoxicity in panel of MDR cell lines, HCT-15 (72 h and 144 h). Type of assay: cell-based, human. Conditions: for IC50: Homo sapiens. Here is the method: as §1
(§2) To further test the ability of the disclosed tubulysin payloads, a cytotoxicity assay was performed using a panel of multidrug resistant (MDR) cell lines. In vitro cytotoxicity of the disclosed payloads as well as reference compounds were similarly evaluated as described above except using HCT-15 cells, a colorectal carcinoma cell line; H69AR, a doxorubicin resistant MDR derivative of the small cell lung cancer carcinoma cell line NCI-H69; MES-SA/MX2, a mitoxantrone resistant MDR derivative of the uterine sarcoma cell line MES-SA; and HL60/MX2, a mitoxantrone resistant MDR derivative of the acute promyelocytic leukemia cell line HL60. In these assays, cytotoxicity was evaluated in normal growth media (RPMI, 10% FBS, 100 units/ml Penicillin, 100 ug/ml streptomycin, and 53 ug/ml glutatmine for HCT-15 and HL60/MX2; RPMI, 20% FBS, 100 units/ml Penicillin, 100 ug/ml streptomycin, and 53 ug/ml glutatmine for H69-AR; Waymouths's:McCoy's (1:1), 10% FBS, 100 units/ml Penicillin, 100 ug/ml streptomycin, and 53 ug/ml glutatmine for MES-SA/MX2) with 1000 cells per well following 72 h and 144 h incubation with payloads.

The next assay concerns H69AR cells. Kind of assay: Cytotoxicity in panel of MDR cell lines, H69AR (72 h and 144 h). Type of assay: cell-based, human. Conditions: for IC50: Homo sapiens. Here is the method: as §1, §2
The next assay has as its system HCT15 cells. Kind of assay: cells. Type of assay: cell-based, human. Conditions: HCT15 cells; for HCT-15 + verapamil % Kill / HCT-15 % Kill: maximum % cell killing. As to the method:
as §1
In vitro cytotoxicity of the disclosed payloads as well as reference compounds were evaluated similarly as described above except using 1000 HCT15 cells, a colorectal carcinoma cell line, in growth medium (RPMI, 10% FBS, 100 units/ml Penicillin, 100 ug/ml streptomycin, 53 ug/ml glutatmine) with or without 5 ug/mL of Verapamil.

[1] abbreviates: with 5 ug/mL Verapamil, read-out: HCT-15 + verapamil IC50.
[2] abbreviates: Homo sapiens, HCT-15, without Verapamil, read-out: HCT-15 IC50.
The mark [3] stands for this setting: with 5 ug/mL Verapamil, read-out: HCT-15 + verapamil IC50 (value in brackets).
Setting [4] is: Homo sapiens, HCT-15, without Verapamil, read-out: HCT-15 IC50 (value in brackets).

Turning to `CCCCCCN(C(=O)[C@@H](NC(=O)[C@H]1CCCCN1C)[C@@H](C)CC)[C@H](C[C@@H](OC(C)=O)c1nc(C(=O)N[C@@H](Cc2ccc(F)cc2)C[C@H](C)C(=O)O)cs1)C(C)C` [IVa, (2S,4R)-4-(2-((1R,3R)-1-Acetoxy-3-((2S,3S)—N-hexyl-3-methyl-2-((R)-1-methylpiperidine-2-carboxamido)pentanamido)-4-methylpentyl)thiazole-4-carboxamido)-5-(4-fluorophenyl)-2-methylpentanoic acid], the IC50 stood at 0.0653 nM with C4-2 cells; 0.166 nM with HCT-15 cells (72 h incubation, read-out: HCT-15 IC50 72 h); 0.318 nM in the assay on HCT-15 cells (144 h incubation, read-out: HCT-15 IC50 144 h); 0.749 nM in the assay with H69AR cells (72 h incubation, read-out: H69AR IC50 72 h); 1.38 nM in the assay with H69AR cells (144 h incubation, read-out: H69AR IC50 144 h). The “C4-2 % Kill” value in the assay on C4-2 cells was 95.2%. Also, the “HCT-15 % Kill 72 h” value in the assay on HCT-15 cells (72 h incubation) was found to be 97.8%. Moreover, the “HCT-15 % Kill 144 h” value with HCT-15 cells (144 h incubation) came out at 99.6%. Besides, the “H69AR % Kill 72 h” value in the assay on H69AR cells (72 h incubation) is given as 96.1%. Moreover, the “H69AR % Kill 144 h” value with H69AR cells (144 h incubation) turned out to be 99.3%.
Turning to `CC[C@H](C)[C@H](NC(=O)[C@H]1CCCCN1C)C(=O)N(CCCCc1cn(CCCC(=O)O)nn1)[C@H](C[C@@H](OC(C)=O)c1nc(C(=O)N[C@@H](Cc2ccc(N)cc2)CC(C)(C)C(=O)O)cs1)C(C)C` [IVn, (S)-4-(2-((1R,3R)-1-Acetoxy-3-((2S,3S)—N-(4-(1-(3-carboxypropyl)-1H-1,2,3-triazol-4-yl)butyl)-3-methyl-2-((R)-1-methylpiperidine-2-carboxamido)pentanamido)-4-methylpentyl)thiazole-4-carboxamido)-5-(4-aminophenyl)-2,2-dimethylpentanoic acid], the IC50 with C4-2 cells was > 100 nM; in the assay on HCT15 cells (setting [1]) it was > 30 nM; in the assay with HCT15 cells (setting [2]) it was > 30 nM. The “C4-2 % Kill” value with C4-2 cells was determined as 30.2%. The “HCT-15 + verapamil % Kill” value in the assay on HCT15 cells (with 5 ug/mL Verapamil) is given as 72.4%. For the same molecule, in the assay with HCT15 cells (without Verapamil), the “HCT-15 % Kill” value amounted to 30.9%.
Regarding `CCCCCCN(C(=O)[C@@H](NC(=O)[C@H]1CCCCN1C)[C@@H](C)CC)[C@H](C[C@@H](OC(C)=O)c1nc(C(=O)N[C@H](Cc2ccc(N)c(F)c2)CC(C)(C)C(=O)O)cs1)C(C)C` [IVvA, 4-({2-[(1R,3R)-1-(Acetyloxy)-3-[(2S,3S)—N-hexyl-3-methyl-2-{[(2R)-1-methylpiperidin-2-yl]formamido}pentanamido]-4-methylpentyl]-1,3-thiazol-4-yl}formamido)-5-(4-amino-3-fluorophenyl)-2,2-dimethylpentanoic acid], the IC50 was 10.9 nM with C4-2 cells, 1.97 nM with HCT15 cells (setting [1]) and 5.27 nM with HCT15 cells (setting [2]). Moreover, the “C4-2 % Kill” value with C4-2 cells came out at 96.7%. Besides, the “HCT-15 + verapamil % Kill” value in the assay on HCT15 cells (with 5 ug/mL Verapamil) is reported as 97.1%. In the assay on HCT15 cells (without Verapamil), the “HCT-15 % Kill” value amounted to 99.2%.
With `CCCCCCN(C(=O)[C@@H](NC(=O)[C@H]1CCCCN1C)[C@@H](C)CC)[C@H](C[C@@H](OC(C)=O)c1nc(C(=O)N[C@@H](Cc2ccc(O)c(N)c2)CC(C)(C)C(=O)O)cs1)C(C)C` [IVw, (S)-4-(2-((1R,3R)-1-Acetoxy-3-((2S,3S)—N-hexyl-3-methyl-2-((R)-1-methylpiperidine-2-carboxamido)pentanamido)-4-methylpentyl)thiazole-4-carboxamido)-5-(3-amino-4-hydroxyphenyl)-2,2-dimethylpentanoic acid], the IC50 was > 100 nM in the assay with C4-2 cells, 4.49 nM in the assay with HCT15 cells (setting [1]) and 9.73 nM in the assay with HCT15 cells (setting [2]). Besides, the “C4-2 % Kill” value in the assay on C4-2 cells is given as 27.9%. In addition, the “HCT-15 + verapamil % Kill” value in the assay on HCT15 cells (with 5 ug/mL Verapamil) was 98.3%. Moreover, the “HCT-15 % Kill” value with HCT15 cells (without Verapamil) turned out to be 95.9%.
For the molecule `C#CCCCON(C(=O)[C@@H](NC(=O)[C@H]1CCCCN1C)[C@@H](C)CC)[C@H](C[C@@H](OC(C)=O)c1nc(C(=O)N[C@@H](Cc2ccc(O)cc2)CC(C)(C)C(=O)O)cs1)C(C)C` [IX, (4S)-4-({2-[(1R,3R)-1-(Acetyloxy)-4-methyl-3-[(2S,3S)-3-methyl-2-{[(2R)-1-methylpiperidin-2-yl]formamido}-N-(pent-4-yn-1-yloxy)pentanamido]pentyl]-1,3-thiazol-4-yl}formamido)-5-(4-hydroxyphenyl)-2,2-dimethylpentanoic acid], the IC50 in the assay with C4-2 cells came out at 0.054 nM; in the assay with HCT15 cells (setting [3]) it was 0.162 nM; in the assay with HCT15 cells (setting [4]), 0.171 nM.
Consider `CCCCCCON(C(=O)[C@@H](NC(=O)[C@H]1CCCCN1C)[C@@H](C)CC)[C@H](C[C@@H](OC(=O)NCCC)c1nc(C(=O)N[C@@H](Cc2ccc(O)cc2)C[C@H](C)C(=O)O)cs1)C(C)C` [VIc, (2S,4R)-5-(4-Hydroxyphenyl)-4-(2-((7R,9R)-9-isopropyl-10-((2S,3S)-3-methyl-2-((R)-1-methylpiperidine-2-carboxamido)pentanoyl)-5-oxo-6,11-dioxa-4,10-diazaheptadecan-7-yl)thiazole-4-carboxamido)-2-methylpentanoic acid], for which the IC50 with C4-2 cells was determined as 1.33 nM; with HCT15 cells (setting [1]) it was 0.286 nM; in the assay with HCT15 cells (setting [2]), 13.2 nM. For the same molecule, the “C4-2 % Kill” value with C4-2 cells was found to be 95.5 ± 1.8%. For the same molecule, the “HCT-15 + verapamil % Kill” value with HCT15 cells (with 5 ug/mL Verapamil) came to 98.8%. Besides, the “HCT-15 % Kill” value in the assay on HCT15 cells (without Verapamil) is reported as 94%.
As for `C#CCCCON(C(=O)[C@@H](NC(=O)[C@H]1CCCCN1C)[C@@H](C)CC)[C@H](C[C@@H](OC(=O)NCC)c1nc(C(=O)N[C@@H](Cc2ccc(NC(C)=O)cc2)CC(C)(C)C(=O)O)cs1)C(C)C` [VIg, (4S)-5-(4-Acetamidophenyl)-4-({2-[(1R,3R)-1-[(ethylcarbamoyl)oxy]-4-methyl-3-[(2S,3S)-3-methyl-2-{[(2R)-1-methylpiperidin-2-yl]formamido}-N-(pent-4-yn-1-yloxy)pentanamido]pentyl]-1,3-thiazol-4-yl}formamido)-2,2-dimethylpentanoic acid], in the assay with C4-2 cells, the IC50 was > 100 nM and the “C4-2 % Kill” value was found to be 10.9%.
As to `CCCCCON(C(=O)[C@@H](NC(=O)[C@H]1CCCCN1C)[C@@H](C)CC)[C@H](C[C@@H](OC(C)=O)c1nc(C(=O)N[C@@H](Cc2ccc(O)cc2)CC(C)(C)C(=O)O)cs1)C(C)C` [X, (4S)-4-({2-[(1R,3R)-1-(Acetyloxy)-4-methyl-3-[(2S,3S)-3-methyl-2-{[(2R)-1-methylpiperidin-2-yl]formamido}-N-(pentyloxy)pentanamido]pentyl]-1,3-thiazol-4-yl}formamido)-5-(4-hydroxyphenyl)-2,2-dimethylpentanoic acid], the figures for the IC50 in the assay on C4-2 cells, with HCT15 cells (setting [3]) and in the assay with HCT15 cells (setting [4]) were 0.06 nM, 0.116 nM and 0.097 nM, respectively.

The IC50 is the midpoint of a concentration-inhibition curve.
